Measured values taken from patent publication US10179777B2, “3-(1H-benzimidazol-2-yl)-1H-pyridin-2-one derivatives” (MERCK PATENT GMBH, priority 2015, dated 2019).

Tests used:
[1] = target: T1, ALK1 (GST-modified kinase domain ACVRL1 (139-503)) (Homo sapiens, UniProt P37023); test: ALK1 kinase inhibition assay (33P-ATP filter binding, Reaction Biology); assay type: biochemical; settings: casein substrate, 100 μM ATP (Km ATP), 120 min ambient temperature
T1 construct: N-terminally GST-modified kinase domain ACVRL1 (139-503); GST (N)
T1 sequence (P37023 139-503): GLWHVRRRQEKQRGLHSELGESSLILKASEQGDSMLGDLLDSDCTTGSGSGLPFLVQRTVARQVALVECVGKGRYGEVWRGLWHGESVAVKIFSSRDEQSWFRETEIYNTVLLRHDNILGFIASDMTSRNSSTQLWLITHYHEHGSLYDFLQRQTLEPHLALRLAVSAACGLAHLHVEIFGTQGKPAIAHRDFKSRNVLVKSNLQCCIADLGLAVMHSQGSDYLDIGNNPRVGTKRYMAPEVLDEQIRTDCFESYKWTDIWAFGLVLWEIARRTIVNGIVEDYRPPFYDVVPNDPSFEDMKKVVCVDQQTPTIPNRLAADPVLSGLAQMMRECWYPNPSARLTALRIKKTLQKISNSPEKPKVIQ
Experimental: (§1) The protein sequences of the kinases targeted and accompanying information are described in publically available data base http://www.uniprot.org/uniprot/for ALK1 www.uniprot.org/uniprot/P37023, for ALK2 www.uniprot.org/uniprot/Q04771 and for ALK5 www.uniprot.org/uniprot/P36897. IC50 determination of the novel inhibitors described was performed at Reaction Biology Corp., Malvern, Pa., USA, with assay conditions open to public at www.reactionbiology.com/webapps/site/KinaseDetail.aspx?page=Kinases&id=1, and www.reactionbiology.com/webapps/site/Kinase Assay Protocol.aspx. In addition, they were specified previously in Anastassiadis et al. Nat. Biotechnol. 29(11): 1039-1045. doi:10.1038/nbt.2017.
A1) ALK1 Kinase Inhibition Assay
(§2) was performed with N-terminally GST-modified kinase domain ACVRL1 (139-503) and 20 mg/ml Casein as substrate in reaction buffer of 20 mM HEPES pH 7.5, 10 mM MgCl2, 1 mM EGTA, 0.02% Brij, 0.02 mg/ml BSA, 0.1 mM Na3VO4, 2 mM DTT, 1% DMSO. […] Reactions were carried out at ambient temperature for 120 min, followed by spotting of the reactions onto P81 ion exchange filter paper (Whatman Inc., Picataway, N.J., USA). Unbound phosphate was removed by extensive washing of filters in 0.75% phosphoric acid. After subtraction of background derived from control reactions without enzyme activity, kinase activity data was expressed as the percent remaining kinase activity in test samples compared to vehicle (DMSO) reactions. IC50 values and curve fits were obtained using Prism (GraphPad Software).

[2] = target: T2, ALK2 (GST-modified kinase domain ACVR1(145-509)) (Homo sapiens, UniProt Q04771); test: ALK2 kinase inhibition assay (33P-ATP filter binding, Reaction Biology); assay type: biochemical; settings: casein substrate, 20 μM ATP (Km ATP), 120 min ambient temperature
T2 construct: N-terminally GST-modified kinase domain ACVR1(145-509); GST (N)
T2 sequence (Q04771 145-509): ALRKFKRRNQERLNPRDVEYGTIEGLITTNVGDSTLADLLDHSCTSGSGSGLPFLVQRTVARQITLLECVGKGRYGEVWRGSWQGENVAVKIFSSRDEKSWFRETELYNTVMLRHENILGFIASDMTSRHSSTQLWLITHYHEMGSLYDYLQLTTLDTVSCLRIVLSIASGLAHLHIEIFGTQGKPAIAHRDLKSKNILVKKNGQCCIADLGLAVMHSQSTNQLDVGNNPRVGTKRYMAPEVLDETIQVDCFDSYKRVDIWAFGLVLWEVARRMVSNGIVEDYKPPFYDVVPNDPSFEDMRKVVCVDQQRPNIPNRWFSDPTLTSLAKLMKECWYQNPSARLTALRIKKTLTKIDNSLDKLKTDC
Experimental: as §1
A2) ALK2 Kinase Inhibition Assay
as §2, with “performed similar to procedure A1” for “performed”, “domain ACVR1(145-509)” for “domain ACVRL1 (139-503)”, “and 1” for “and 20”

Structure (SMILES)	IC50 [1]	IC50 [2]
O=c1[nH]cc(-c2c[nH]c3ccccc23)cc1-c1nc2cc(N3CCNCC3)ccc2[nH]1 [Compound A15, 5-(1H-Indol-3-yl)-3-(6-piperazin-1-yl-1H-benzimidazol-2-yl)-1H-pyridin-2-one]	3.5 µM	
Cc1ccc2nc(-c3cc(-c4ccncc4)c[nH]c3=O)[nH]c2c1 [Compound A4, 5-(5-Methyl-1H-benzimidazol-2-yl)-1H-[3,4′]bipyridinyl-6-one]	9.2 µM	5.4 µM
O=c1[nH]cc(-c2ccncc2)cc1-c1nc2ccc(Cl)cc2[nH]1 [Compound A3, 5-(5-Chloro-1H-benzimidazol-2-yl)-1H-[3,4′]bipyridinyl-6-one]	8.9 µM	
O=c1[nH]cc(-c2ccnc3ccccc23)cc1-c1nc2ccccc2[nH]1 [Compound A2, 3-(1H-Benzimidazol-2-yl)-5-quinolin-4-yl-1H-pyridin-2-one]	1.4 µM	0.63 µM
Cc1cccc2[nH]c(-c3cc(-c4ccncc4)c[nH]c3=O)nc12 [Compound A5, 5-(4-Methyl-1H-benzimidazol-2-yl)-1H-[3,4′]bipyridinyl-6-one]	10 µM	5.7 µM
O=c1[nH]cc(-c2ccnc3ccccc23)cc1-c1nc2cc(Oc3ccncc3)ccc2[nH]1 [Compound A10, 3-[5-(Pyridin-4-yloxy)-1H-benzimidazol-2-yl]-5-quinolin-4-yl-1H-pyridin-2-one]	0.95 µM	0.43 µM
CN1CCN(c2ccc3[nH]c(-c4cc(-c5cccnc5)c[nH]c4=O)nc3c2)CC1 [Compound A31, 5-[5-(4-Methyl-piperazin-1-yl)-1H-benzimidazol-2-yl]-1H-[3,3′]bipyridinyl-6-one]	5.5 µM	3.4 µM
CN1CCN(c2ccc3[nH]c(-c4cc(-c5ccncc5)c[nH]c4=O)nc3c2)CC1 [Compound A28, 5-[5-(4-Methyl-piperazin-1-yl)-1H-benzimidazol-2-yl]-1H-[3,4′]bipyridinyl-6-one]		0.099 µM
CN1CCN(c2ccc3[nH]c(-c4cc(-c5cnn(C)c5)c[nH]c4=O)nc3c2)CC1 [Compound A30, 3-[5-(4-Methyl-piperazin-1-yl)-1H-benzimidazol-2-yl]-5-(1-methyl-1H-pyrazol-4-yl)-1H-pyridin-2-one]	1.8 µM	0.71 µM

Now from value to compound:

IC50 [1]	IC50 [2]	Structure (SMILES)
6.8 µM	3.1 µM	CC(=O)NCc1ccc2[nH]c(-c3cc(-c4ccncc4)c[nH]c3=O)nc2c1 [Compound A55, N-[2-(6-Oxo-1,6-dihydro-[3,4′]bipyridinyl-5-yl)-1H-benzimidazol-5-ylmethyl]-acetamide]
0.19 µM	0.12 µM	O=c1[nH]cc(-c2ccnc3[nH]ccc23)cc1-c1nc2ccccc2[nH]1 [Compound A39, 3-(1H-Benzimidazol-2-yl)-5-(1H-pyrrolo[2,3-b]pyridin-4-yl)-1H-pyridin-2-one]
2.6 µM	1.1 µM	NCc1ccc2[nH]c(-c3cc(-c4ccncc4)c[nH]c3=O)nc2c1 [Compound A54, 5-(5-Aminomethyl-1H-benzimidazol-2-yl)-1H-[3,4′]bipyridinyl-6-one]
3.3 µM	3.1 µM	CN1CCC(NC(=O)c2ccc3[nH]c(-c4cc(-c5ccncc5)c[nH]c4=O)nc3c2)CC1 [Compound A58, 2-(6-Oxo-1,6-dihydro-[3,4′]bipyridinyl-5-yl)-3H-benzimidazole-5-carboxylic acid (1-methyl-piperidin-4-yl)-amide]
3.1 µM		CCN(CC)CCNC(=O)c1ccc2nc(-c3cc(-c4ccncc4)c[nH]c3=O)[nH]c2c1 [Compound A57, 2-(6-Oxo-1,6-dihydro-[3,4′]bipyridinyl-5-yl)-3H-benzimidazole-5-carboxylic acid (2-diethylamino-ethyl)-amide]
